Tests used:
Assay in all cases: β-arrestin based GPCR screen (PathHunter / GPCRmax), agonist mode
Assay type in all cases: cell-based
Parameters in all cases: host or cells: PathHunter cell lines
168 GPCRs [1] = target: 168 GPCRs (Homo sapiens, UniProt P35408)
Experimental: (§1) For agonist determination, cells were incubated with sample to induce response. […] Vehicle concentration was 1%.

168 GPCRs [2] = target: 168 GPCRs (Homo sapiens, UniProt P28222); conditions: HTR1B
Experimental: as §1

168 GPCRs [3] = target: 168 GPCRs (Homo sapiens, UniProt O43193); conditions: MLNR
Experimental: as §1

168 GPCRs [4] = target: 168 GPCRs (Homo sapiens, UniProt P30559); conditions: OXTR
Experimental: as §1

168 GPCRs [5] = target: 168 GPCRs (Homo sapiens, UniProt P32239); conditions: CCKBR, Agonist
Experimental: as §1

168 GPCRs [6] = target: 168 GPCRs (Homo sapiens, UniProt P47871); conditions: GCGR
Experimental: as §1

168 GPCRs [7] = target: 168 GPCRs (Homo sapiens, UniProt Q9H1C0)
Experimental: as §1

168 GPCRs [8] = target: 168 GPCRs (Homo sapiens, UniProt P32249)
Experimental: as §1

168 GPCRs [9] = target: 168 GPCRs (Homo sapiens, UniProt P32302)
Experimental: as §1

168 GPCRs [10] = target: T1, 168 GPCRs (Homo sapiens, UniProt Q9Y5Y4)
T1 sequence (Q9Y5Y4 1-395): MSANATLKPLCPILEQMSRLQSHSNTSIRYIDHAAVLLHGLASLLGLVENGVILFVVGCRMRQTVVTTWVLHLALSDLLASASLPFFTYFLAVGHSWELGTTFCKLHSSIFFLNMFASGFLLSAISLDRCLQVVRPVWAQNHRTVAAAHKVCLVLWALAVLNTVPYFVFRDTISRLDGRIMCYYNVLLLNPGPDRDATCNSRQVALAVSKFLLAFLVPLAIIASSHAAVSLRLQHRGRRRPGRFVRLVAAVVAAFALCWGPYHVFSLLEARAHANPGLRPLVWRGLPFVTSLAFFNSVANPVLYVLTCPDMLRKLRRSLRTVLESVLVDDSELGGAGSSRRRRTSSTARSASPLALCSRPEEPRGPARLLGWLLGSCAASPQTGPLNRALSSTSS
Experimental: as §1

168 GPCRs [11] = target: 168 GPCRs (Homo sapiens, UniProt P51681); conditions: CCR5, CCR5, Agonist
Experimental: as §1

168 GPCRs [12] = target: 168 GPCRs (Homo sapiens, UniProt O43613)
Experimental: as §1

168 GPCRs [13] = target: 168 GPCRs (Homo sapiens, UniProt O43603)
Experimental: as §1

168 GPCRs [14] = target: T2, 168 GPCRs (Homo sapiens, UniProt P32247); conditions: BRS3, Agonist
T2 sequence (P32247 1-399): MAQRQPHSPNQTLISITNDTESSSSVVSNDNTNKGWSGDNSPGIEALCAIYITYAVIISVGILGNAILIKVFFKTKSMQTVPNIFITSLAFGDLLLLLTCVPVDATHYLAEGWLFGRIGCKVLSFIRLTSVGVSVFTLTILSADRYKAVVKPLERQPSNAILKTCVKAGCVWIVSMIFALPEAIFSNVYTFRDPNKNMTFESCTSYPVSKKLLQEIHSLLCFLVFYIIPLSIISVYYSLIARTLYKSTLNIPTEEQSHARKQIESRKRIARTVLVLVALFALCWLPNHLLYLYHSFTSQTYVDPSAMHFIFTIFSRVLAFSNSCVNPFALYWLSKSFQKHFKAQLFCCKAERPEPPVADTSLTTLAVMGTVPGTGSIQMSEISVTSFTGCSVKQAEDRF
Experimental: as §1

168 GPCRs [15] = target: 168 GPCRs (Homo sapiens, UniProt Q92847); conditions: GHSR
Experimental: as §1

168 GPCRs [16] = target: 168 GPCRs (Homo sapiens, UniProt P21918)
Experimental: as §1

168 GPCRs [17] = target: 168 GPCRs (Homo sapiens, UniProt P21730); conditions: C5AR1, Agonist
Experimental: as §1

168 GPCRs (Homo sapiens, UniProt P32249), sequence (P32249 whole entry): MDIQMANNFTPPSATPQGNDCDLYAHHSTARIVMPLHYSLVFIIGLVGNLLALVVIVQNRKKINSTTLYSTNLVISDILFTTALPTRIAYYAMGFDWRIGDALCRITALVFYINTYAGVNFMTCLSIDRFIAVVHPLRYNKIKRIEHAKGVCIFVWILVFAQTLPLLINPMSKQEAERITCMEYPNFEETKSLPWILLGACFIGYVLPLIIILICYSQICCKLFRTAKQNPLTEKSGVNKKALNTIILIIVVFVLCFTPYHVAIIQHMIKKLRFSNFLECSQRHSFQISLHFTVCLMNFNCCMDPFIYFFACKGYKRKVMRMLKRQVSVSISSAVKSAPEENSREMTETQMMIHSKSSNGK
168 GPCRs (Homo sapiens, UniProt P47871), sequence (P47871 26-477): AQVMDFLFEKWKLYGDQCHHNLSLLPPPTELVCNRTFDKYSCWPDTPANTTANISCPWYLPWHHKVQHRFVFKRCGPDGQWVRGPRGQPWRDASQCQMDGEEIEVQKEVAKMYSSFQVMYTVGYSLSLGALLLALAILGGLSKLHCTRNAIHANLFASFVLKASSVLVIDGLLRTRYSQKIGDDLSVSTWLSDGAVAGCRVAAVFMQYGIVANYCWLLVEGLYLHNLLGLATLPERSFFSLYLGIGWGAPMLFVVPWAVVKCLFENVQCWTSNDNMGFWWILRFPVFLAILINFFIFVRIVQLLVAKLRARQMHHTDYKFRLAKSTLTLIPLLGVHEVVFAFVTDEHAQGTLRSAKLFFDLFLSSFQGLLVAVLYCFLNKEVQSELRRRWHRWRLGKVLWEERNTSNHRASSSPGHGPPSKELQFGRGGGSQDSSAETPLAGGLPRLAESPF
168 GPCRs (Homo sapiens, UniProt P35408), sequence (P35408 whole entry): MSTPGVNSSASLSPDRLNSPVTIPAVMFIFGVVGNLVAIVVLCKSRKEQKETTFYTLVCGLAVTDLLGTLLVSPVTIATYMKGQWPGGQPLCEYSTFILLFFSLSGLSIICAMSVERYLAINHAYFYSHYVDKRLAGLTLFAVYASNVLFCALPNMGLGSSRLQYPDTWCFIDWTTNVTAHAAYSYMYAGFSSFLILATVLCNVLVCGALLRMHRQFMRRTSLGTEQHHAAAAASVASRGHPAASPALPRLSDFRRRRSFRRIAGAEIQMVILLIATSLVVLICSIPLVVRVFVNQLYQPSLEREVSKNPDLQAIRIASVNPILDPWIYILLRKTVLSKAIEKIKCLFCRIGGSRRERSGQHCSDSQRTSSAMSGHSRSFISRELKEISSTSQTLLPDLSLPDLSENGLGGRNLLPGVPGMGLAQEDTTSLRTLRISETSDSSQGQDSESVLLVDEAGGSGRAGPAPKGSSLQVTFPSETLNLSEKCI
168 GPCRs (Homo sapiens, UniProt O43613), sequence (O43613 whole entry): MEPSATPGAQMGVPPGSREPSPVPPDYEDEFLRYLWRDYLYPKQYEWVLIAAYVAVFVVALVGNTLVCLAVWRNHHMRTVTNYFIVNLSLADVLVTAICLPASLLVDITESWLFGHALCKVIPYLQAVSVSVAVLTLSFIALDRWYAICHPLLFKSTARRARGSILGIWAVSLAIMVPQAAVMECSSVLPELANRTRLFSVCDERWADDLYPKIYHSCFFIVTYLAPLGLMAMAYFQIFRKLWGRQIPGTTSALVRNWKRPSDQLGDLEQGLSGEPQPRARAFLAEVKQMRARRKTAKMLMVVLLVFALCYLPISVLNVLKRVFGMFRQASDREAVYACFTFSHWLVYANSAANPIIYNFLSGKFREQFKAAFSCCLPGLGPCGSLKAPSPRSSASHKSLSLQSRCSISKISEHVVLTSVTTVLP
168 GPCRs (Homo sapiens, UniProt O43193), sequence (O43193 whole entry): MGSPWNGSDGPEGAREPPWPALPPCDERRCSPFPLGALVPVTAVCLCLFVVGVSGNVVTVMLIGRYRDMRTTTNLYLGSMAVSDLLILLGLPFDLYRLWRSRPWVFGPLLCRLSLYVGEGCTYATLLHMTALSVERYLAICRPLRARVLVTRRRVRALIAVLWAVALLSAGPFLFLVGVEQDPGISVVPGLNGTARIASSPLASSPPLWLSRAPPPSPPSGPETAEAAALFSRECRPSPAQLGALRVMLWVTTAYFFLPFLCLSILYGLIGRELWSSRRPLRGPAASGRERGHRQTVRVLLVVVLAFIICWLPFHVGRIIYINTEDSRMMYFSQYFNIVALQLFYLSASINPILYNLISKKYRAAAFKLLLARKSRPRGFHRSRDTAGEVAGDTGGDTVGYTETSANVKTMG
168 GPCRs (Homo sapiens, UniProt P30559), sequence (P30559 whole entry): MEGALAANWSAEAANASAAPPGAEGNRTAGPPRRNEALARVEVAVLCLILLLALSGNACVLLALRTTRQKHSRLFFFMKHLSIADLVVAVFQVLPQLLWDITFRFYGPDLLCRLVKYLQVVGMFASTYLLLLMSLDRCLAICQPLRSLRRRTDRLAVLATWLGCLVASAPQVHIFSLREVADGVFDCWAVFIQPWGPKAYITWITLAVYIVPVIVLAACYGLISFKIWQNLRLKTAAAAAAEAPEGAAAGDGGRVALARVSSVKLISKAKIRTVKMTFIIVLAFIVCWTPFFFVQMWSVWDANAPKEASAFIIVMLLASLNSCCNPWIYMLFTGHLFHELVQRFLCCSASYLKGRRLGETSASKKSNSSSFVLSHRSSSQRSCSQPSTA
168 GPCRs (Homo sapiens, UniProt P51681), sequence (P51681 whole entry): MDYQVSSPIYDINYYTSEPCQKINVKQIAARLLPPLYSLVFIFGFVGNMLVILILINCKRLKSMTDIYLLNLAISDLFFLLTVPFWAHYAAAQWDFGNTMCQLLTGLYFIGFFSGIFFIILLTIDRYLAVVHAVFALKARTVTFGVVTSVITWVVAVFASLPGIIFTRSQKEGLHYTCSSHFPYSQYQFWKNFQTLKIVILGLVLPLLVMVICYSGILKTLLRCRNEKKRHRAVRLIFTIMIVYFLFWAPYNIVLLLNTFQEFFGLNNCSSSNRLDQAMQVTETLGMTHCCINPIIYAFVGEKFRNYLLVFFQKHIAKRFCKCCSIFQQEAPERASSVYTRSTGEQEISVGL
168 GPCRs (Homo sapiens, UniProt Q9H1C0), sequence (Q9H1C0 whole entry): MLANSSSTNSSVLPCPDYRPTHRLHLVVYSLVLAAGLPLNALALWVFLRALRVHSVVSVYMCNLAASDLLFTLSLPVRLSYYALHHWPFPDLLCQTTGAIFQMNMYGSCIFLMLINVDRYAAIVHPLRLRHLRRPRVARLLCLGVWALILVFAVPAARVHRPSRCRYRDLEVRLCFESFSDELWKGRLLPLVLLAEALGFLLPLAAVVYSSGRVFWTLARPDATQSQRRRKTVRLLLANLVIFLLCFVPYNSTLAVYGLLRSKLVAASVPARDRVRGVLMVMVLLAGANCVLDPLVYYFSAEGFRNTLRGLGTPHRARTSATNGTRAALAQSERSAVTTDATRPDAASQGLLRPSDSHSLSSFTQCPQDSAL
168 GPCRs (Homo sapiens, UniProt P21918), sequence (P21918 whole entry): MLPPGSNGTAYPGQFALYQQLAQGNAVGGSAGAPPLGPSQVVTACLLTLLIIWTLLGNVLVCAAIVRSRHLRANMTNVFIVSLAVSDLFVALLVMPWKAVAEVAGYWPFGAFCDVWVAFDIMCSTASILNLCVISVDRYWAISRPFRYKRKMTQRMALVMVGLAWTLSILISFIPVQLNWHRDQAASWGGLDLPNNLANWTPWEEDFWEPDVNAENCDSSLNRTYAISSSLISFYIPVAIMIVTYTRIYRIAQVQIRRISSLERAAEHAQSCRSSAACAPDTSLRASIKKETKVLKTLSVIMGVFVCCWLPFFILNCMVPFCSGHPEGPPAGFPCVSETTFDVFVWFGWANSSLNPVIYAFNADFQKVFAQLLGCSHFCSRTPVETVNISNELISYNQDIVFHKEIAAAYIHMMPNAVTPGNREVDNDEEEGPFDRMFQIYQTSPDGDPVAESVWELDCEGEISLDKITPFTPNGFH
168 GPCRs (Homo sapiens, UniProt P21730), sequence (P21730 whole entry): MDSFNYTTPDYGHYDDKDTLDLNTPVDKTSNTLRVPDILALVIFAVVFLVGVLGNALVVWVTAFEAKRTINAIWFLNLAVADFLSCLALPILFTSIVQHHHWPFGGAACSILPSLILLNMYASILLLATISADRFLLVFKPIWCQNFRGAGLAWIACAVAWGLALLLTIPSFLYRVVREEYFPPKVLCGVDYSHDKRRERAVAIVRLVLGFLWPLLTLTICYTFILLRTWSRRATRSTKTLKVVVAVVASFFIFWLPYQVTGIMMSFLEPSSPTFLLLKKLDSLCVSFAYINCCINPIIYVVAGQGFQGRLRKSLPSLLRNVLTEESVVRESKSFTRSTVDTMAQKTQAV
168 GPCRs (Homo sapiens, UniProt P32302), sequence (P32302 whole entry): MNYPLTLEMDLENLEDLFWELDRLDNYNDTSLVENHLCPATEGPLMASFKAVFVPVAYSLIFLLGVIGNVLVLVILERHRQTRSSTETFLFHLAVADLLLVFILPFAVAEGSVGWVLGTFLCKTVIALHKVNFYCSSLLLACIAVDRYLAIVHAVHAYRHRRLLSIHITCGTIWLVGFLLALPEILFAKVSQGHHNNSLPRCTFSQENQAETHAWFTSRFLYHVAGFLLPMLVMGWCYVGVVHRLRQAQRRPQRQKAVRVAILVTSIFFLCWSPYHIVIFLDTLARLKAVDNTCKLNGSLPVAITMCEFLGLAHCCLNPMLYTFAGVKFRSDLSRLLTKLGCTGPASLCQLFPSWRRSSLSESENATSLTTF
168 GPCRs (Homo sapiens, UniProt P32239), sequence (P32239 whole entry): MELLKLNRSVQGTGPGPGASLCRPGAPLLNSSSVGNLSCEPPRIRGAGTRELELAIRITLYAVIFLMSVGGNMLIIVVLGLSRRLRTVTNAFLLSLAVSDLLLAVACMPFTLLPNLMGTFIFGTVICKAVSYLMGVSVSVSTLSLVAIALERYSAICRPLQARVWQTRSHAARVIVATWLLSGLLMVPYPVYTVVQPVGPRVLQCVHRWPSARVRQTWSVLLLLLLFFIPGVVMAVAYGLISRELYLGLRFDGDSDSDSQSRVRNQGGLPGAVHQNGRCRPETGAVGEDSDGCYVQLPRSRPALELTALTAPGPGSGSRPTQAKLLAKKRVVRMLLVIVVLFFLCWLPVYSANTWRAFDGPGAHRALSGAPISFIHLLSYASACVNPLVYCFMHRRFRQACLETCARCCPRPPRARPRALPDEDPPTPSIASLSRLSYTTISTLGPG

`CNC(C)C(=O)c1ccc2c(c1)OCO2` (stereo not shown) [methylone, 3,4-methylenedioxy-N-methylcathinone] gave an activity at 10 µM (168 GPCRs [1]; PTGER4, Agonist mode, 10 uM) of -1.4%, an activity at 1 µM (168 GPCRs [1]; PTGER4, Agonist, 1 uM) of -2.8% and an activity at 10 µM (168 GPCRs [2]; Agonist mode, 10 uM) of 6.7%. It also gave an activity at 1 µM (168 GPCRs [2]; Agonist, 1 uM) of 3.3%, an activity at 10 µM (168 GPCRs [3]; Agonist mode, 10 uM) of -1% and an activity at 1 µM (168 GPCRs [3]; Agonist, 1 uM) of -1.5%. For the same molecule, the activity at 10 µM (168 GPCRs [4]; Agonist mode, 10 uM) was -0.5%, the activity at 1 µM (168 GPCRs [4]; Agonist, 1 uM) was -0.6% and the activity at 1 µM (168 GPCRs [5]; 1 uM) was -1%. The activity at 10 µM (168 GPCRs [5]; 10 uM) was 1.5%, the activity at 10 µM (168 GPCRs [6]; Agonist mode, 10 uM) was -3% and the activity at 1 µM (168 GPCRs [6]; Agonist, 1 uM) was -2.3%. The activity at 10 µM (168 GPCRs [7]; GPR92, Agonist mode, 10 uM) was -3.5%, the activity at 1 µM (168 GPCRs [7]; GPR92, Agonist, 1 uM) was -1.6% and the activity at 10 µM (168 GPCRs [8]; EBI2, Agonist mode, 10 uM) was 0.1%. It also gave an activity at 1 µM (168 GPCRs [8]; EBI2, Agonist, 1 uM) of 0.5%, an activity at 10 µM (168 GPCRs [9]; CXCR5, Agonist mode, 10 uM) of 1.4% and an activity at 1 µM (168 GPCRs [9]; CXCR5, Agonist, 1 uM) of 2.5%. For the same molecule, the activity at 10 µM (168 GPCRs [10]; CRTH2, Agonist mode, 10 uM) was -5%, the activity at 1 µM (168 GPCRs [10]; CRTH2, Agonist, 1 uM) was -5.7% and the activity at 1 µM (168 GPCRs [11]; 1 uM) was -0.1%. For the same molecule, the activity at 10 µM (168 GPCRs [11]; 10 uM) was 0.3%, the activity at 10 µM (168 GPCRs [12]; HCRTR1, Agonist mode, 10 uM) was -0.1% and the activity at 1 µM (168 GPCRs [12]; HCRTR1, Agonist, 1 uM) was -0.1%. The activity at 10 µM (168 GPCRs [13]; GALR2, Agonist mode, 10 uM) was 1.9%, the activity at 1 µM (168 GPCRs [13]; GALR2, Agonist, 1 uM) was 3.4% and the activity at 1 µM (168 GPCRs [14]; 1 uM) was 4.5%. The activity at 10 µM (168 GPCRs [14]; 10 uM) was -4.6%, the activity at 10 µM (168 GPCRs [15]; Agonist mode, 10 uM) was -7.2% and the activity at 1 µM (168 GPCRs [15]; Agonist, 1 uM) was -6.6%. It also gave an activity at 10 µM (168 GPCRs [16]; DRD5, Agonist mode, 10 uM) of -0.2%, an activity at 1 µM (168 GPCRs [16]; DRD5, Agonist, 1 uM) of -0.1% and an activity at 1 µM (168 GPCRs [17]; 1 uM) of -1%. For the same molecule, the activity at 10 µM (168 GPCRs [17]; 10 uM) was -1.3%.
